These results are taken from patent US4801614A, “Process for using endogenous enkephalins and endorphins to inhibit growth of tumerous cells” (TNI Pharmaceuticals, Inc., priority 1987, dated 1989).

This assay deals with L1210 tumor cells. The following applies: 30 mg/Kg s.c. methionine-enkephalin where combined. The source says:
Groups of BDF1 female mouse strain (16-20 gms) were inoculated with L1210 (leukemia) tumor cells (1×10^4, 1×10^3, or 1×10^2 cells) and observed for survival. The L1210 line of tumor cells was maintained in DBA/2 host mice. Ascitic fluid from the DBA/2 mice was used to inoculate the BDF1 mice transferred in RPMI 1640 buffer at pH 8-9).
In order to test for any synergistic effect of using an endogenous enkephalin with a known chemo-therapeutic agent, a study involving the inoculation of groups of mice with massive doses (1×10^6 ) of L1210 tumor cells was performed in a manner analogous to the previous examples transferred in RPMI 1640 at pH 7.

Where two headings read alike, the source gives them in different places.

As for `N.N.[Cl][Pt][Cl]` [Cis-platin, cis-platin], the cumulative dead (2 mg/Kg cis-platin, day 9) is 3/20; the cumulative dead (2 mg/Kg cis-platin, day 10) was 13/20; the cumulative dead (2 mg/Kg cis-platin, day 11) is 14/20; the cumulative dead (2 mg/Kg cis-platin, day 12) is 15/20; the cumulative dead (2 mg/Kg cis-platin, day 13) is 17/20; the cumulative dead (2 mg/Kg cis-platin, day 14) is 19/20. Besides, the cumulative dead is on record as 10/20 (4 mg/Kg cis-platin, day 11); 15/20 (4 mg/Kg cis-platin, day 12); 19/20 (4 mg/Kg cis-platin, day 13); 20/20 (4 mg/Kg cis-platin, day 15); 2/20 (single dose 8 mg/Kg cis-platin, day 9); 4/20 (single dose 8 mg/Kg cis-platin, day 12). For the same compound, the cumulative dead (single dose 8 mg/Kg cis-platin, day 13) is 7/20; the cumulative dead (single dose 8 mg/Kg cis-platin, day 14) is listed as 12/20; the cumulative dead (single dose 8 mg/Kg cis-platin, day 15) was 16/20; the cumulative dead (single dose 8 mg/Kg cis-platin, day 16) is recorded as 18/20; the cumulative dead (single dose 8 mg/Kg cis-platin, day 18) is 19/20; the cumulative dead (single dose 8 mg/Kg cis-platin, day 20) is 20/20. For the same compound, the “Median Day of Death (ED50)” value came to 10 days (2 mg/Kg cis-platin, saline control 9 Days); 10 days (4 mg/Kg cis-platin, saline control 8 Days); 12 days (8 mg/Kg cis-platin, saline control 8 days).
